From patent US11999727B2 (Tango Therapeutics, Inc., priority 2020, dated 2024)

Experiments:
PRMT5 [1] = target: T1, PRMT5 (Homo sapiens, UniProt O14744); experiment: PRMT5 biochemical IC50 assay with SAM as cofactor; conditions: PRMT5, SAM as cofactor; read-out: SAM IC50
T1 construct: purchased Viva (custom protein)

PRMT5 [2] = target: T1, PRMT5; experiment: PRMT5 biochemical IC50 assay with no cofactor; conditions: PRMT5, no cofactor
Text: Table 1 indicates IC50 values (μM) against PRMT5 for exemplary compounds in the presence of SAM as cofactor, with no cofactor, and with MTA as cofactor, respectively (columns 4-6). […] Ki values can be calculated from the IC50 values as described in the Examples section. As detailed in the Examples section, for the assay performed in the presence of SAM, IC50=Ki×1.5 (Ki=IC50/1.5).

PRMT5 [3] = target: T1, PRMT5; experiment: PRMT5 biochemical IC50 assay with MTA as cofactor; conditions: PRMT5, MTA as cofactor; read-out: MTA IC50
[4] = tested on: HAP1 MTAP-deleted cell line; experiment: SDMA in-cell western assay, HAP1 MTAP-deleted; type: cell-based; conditions: for IC50: Homo sapiens; for MTAP intact/deleted ratio: SDMA in-cell western
Text: Table 1 also indicates IC50 values in an MTAP-isogenic cell line pair for exemplary compounds in an SDMA in-cell western assay (columns 7-8). HAP1 MTAP-intact is a cell line in which endogenous levels of MTAP are expressed, and HAP1 MTAP-deleted is an MTAP-null cell line.

[5] = tested on: HAP1 MTAP-deleted cell line; experiment: Viability assay, MTAP-deleted cell line; type: cell-based
Text: Table 1 additionally indicates IC50 values in a viability assay for the MTAP-deleted cell line (column 10), indicating the effect of treatment with compound on cell survival.

[6] = read-out: No Cofactor/ rel IC50
[7] = Homo sapiens, HAP1, read-out: HAP1 MTAP deleted viability

T1 sequence (O14744 whole entry): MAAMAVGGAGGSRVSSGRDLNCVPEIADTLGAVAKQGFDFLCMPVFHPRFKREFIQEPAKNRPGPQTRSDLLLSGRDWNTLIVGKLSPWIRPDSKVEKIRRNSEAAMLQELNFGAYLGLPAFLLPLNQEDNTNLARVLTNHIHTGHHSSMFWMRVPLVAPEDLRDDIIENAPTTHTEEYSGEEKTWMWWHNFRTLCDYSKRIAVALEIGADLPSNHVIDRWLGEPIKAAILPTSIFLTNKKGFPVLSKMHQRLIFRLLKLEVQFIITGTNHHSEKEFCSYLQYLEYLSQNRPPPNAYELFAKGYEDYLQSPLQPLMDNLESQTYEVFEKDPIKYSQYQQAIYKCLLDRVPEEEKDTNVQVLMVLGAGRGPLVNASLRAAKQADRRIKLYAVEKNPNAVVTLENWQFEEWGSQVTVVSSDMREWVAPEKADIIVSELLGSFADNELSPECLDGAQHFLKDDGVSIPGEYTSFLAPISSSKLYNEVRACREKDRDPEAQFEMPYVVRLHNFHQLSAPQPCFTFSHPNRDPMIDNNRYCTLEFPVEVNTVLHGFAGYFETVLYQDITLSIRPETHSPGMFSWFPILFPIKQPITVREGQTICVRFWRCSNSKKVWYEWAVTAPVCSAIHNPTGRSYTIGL
T1 sequence (Q9BQA1 whole entry partner): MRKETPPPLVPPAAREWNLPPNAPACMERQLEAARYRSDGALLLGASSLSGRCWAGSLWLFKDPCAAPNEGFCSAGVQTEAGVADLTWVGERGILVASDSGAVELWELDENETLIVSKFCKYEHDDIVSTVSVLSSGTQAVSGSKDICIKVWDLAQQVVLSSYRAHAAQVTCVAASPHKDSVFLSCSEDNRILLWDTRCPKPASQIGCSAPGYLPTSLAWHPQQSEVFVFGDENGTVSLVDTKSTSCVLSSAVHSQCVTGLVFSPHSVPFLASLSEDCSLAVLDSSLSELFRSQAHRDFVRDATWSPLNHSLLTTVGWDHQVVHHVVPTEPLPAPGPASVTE

`C[C@H]1CC[C@@H](c2ccc(O)nc2)N(C(=O)C(=O)Nc2cncc(C(N)=O)c2)C1` (single isomer, unassigned) [Compound 402] was tested, and the IC50 (PRMT5 [1]) was > 500 nM, the IC50 (PRMT5 [2]; read-out: No Cofactor/rel IC50) was > 500 nM and the IC50 (PRMT5 [3]) was > 500 nM.
For `COc1ncc(NC(=O)C(=O)N2C[C@H](C)CC[C@H]2C2CCCCC2)cc1C(N)=O` (single isomer, unassigned) [Compound 370], the IC50 (PRMT5 [1]) was > 500 nM, the IC50 (PRMT5 [2]; read-out: No Cofactor/rel IC50) was > 500 nM and the IC50 (PRMT5 [3]) was > 500 nM.
In the case of `C[C@@H]1CC[C@H](c2cccnc2)N(C(=O)C(=O)Nc2cncc(C(N)=O)c2)C1` (single isomer, unassigned) [Compound 98], the IC50 (PRMT5 [1]) is reported as > 500 nM, the IC50 (PRMT5 [2]; [6]) is reported as > 500 nM and the IC50 (PRMT5 [3]) is reported as > 500 nM.
For `Cc1cc(NC(=O)C(=O)N2C[C@@H](C)CC[C@@H]2C2CCCCC2)cnc1N` (single isomer, unassigned) [Compound 152], the IC50 (PRMT5 [1]) was > 500 nM, the IC50 (PRMT5 [2]; [6]) was > 500 nM and the IC50 (PRMT5 [3]) was > 500 nM.
With `C[C@@H]1CC[C@@H](c2ccccc2)N(C(=O)C(=O)Nc2cncc(C(N)=O)c2)C1` (single isomer, unassigned) [Compound 71] the IC50 ([4]; HAP1, read-out: HAP1 MTAP deleted IC50) was > 1000 nM and the IC50 [5, 7] was > 10000 nM.
With `Cc1cc(NC(=O)C(=O)N2C[C@H](C)CC[C@H]2c2ccccc2)cnc1N` (single isomer, unassigned) [Compound 40] the IC50 [5, 7] was > 10000 nM.
With `C[C@@H]1CC[C@@H](C2CCCCC2)N(C(=O)C(=O)Nc2cncc(C(N)=O)c2)C1` (single isomer, unassigned) [Compound 130] the IC50 (PRMT5 [1]) was > 500 nM, the IC50 (PRMT5 [2]; [6]) was > 500 nM and the IC50 (PRMT5 [3]) was > 500 nM.
`COc1ncc(NC(=O)C(=O)N2C[C@@H](C)CC[C@@H]2c2ccc3sc(CCN(C)C)nc3c2)cc1C(N)=O` (single isomer, unassigned) [Compound 1378] was tested, and the IC50 (PRMT5 [2]; [6]) was < 50 nM, the IC50 ([4]; HAP1, SDMA in-cell western, HAP1 MTAP-deleted, read-out: HAP 1 MTAP deleted IC50) was < 100 nM and the “MTAP intact/deleted ratio” value ([4]; IC50 ratio HAP1 MTAP-intact / HAP1 MTAP-deleted) was “A (an IC50 ratio greater than or equal to 10 fold)”. For the same molecule, the IC50 ([5]; Homo sapiens, HAP1, viability, HAP1 MTAP-deleted cell line, read-out: HAP1 MTAP deleted viability) was < 1000 nM.
With `Cc1cc(NC(=O)C(=O)N2C[C@@H](C)CC[C@@H]2c2cccc(N(C)C)c2)cnc1N` (single isomer, unassigned) [Compound 387] the IC50 (PRMT5 [1]) was > 500 nM, the IC50 (PRMT5 [2]; read-out: No Cofactor/rel IC50) was > 500 nM and the IC50 (PRMT5 [3]) was > 500 nM.
`Cc1cncc(NC(=O)C(=O)N2C[C@@H](C)CC[C@@H]2c2ccc(C)c(C)c2)c1` (single isomer, unassigned) [Compound 19] was tested, and the IC50 (PRMT5 [1]) was > 500 nM, the IC50 (PRMT5 [2]; [6]) was > 500 nM and the IC50 (PRMT5 [3]) was > 500 nM.
With `Cc1cc(NC(=O)C(=O)N2C[C@H](C)[C@@H](C)C[C@@H]2c2ccccc2)cnc1N` (single isomer, unassigned) [Compound 305] the IC50 (PRMT5 [1]) was > 500 nM, the IC50 (PRMT5 [2]; read-out: No Cofactor/rel IC50) was > 500 nM and the IC50 (PRMT5 [3]) was > 500 nM.
`Cc1cc(NC(=O)C(=O)N2C[C@@H](C)CC[C@@H]2c2cccs2)cnc1N` (single isomer, unassigned) [Compound 122] was tested, and the IC50 (PRMT5 [1]) was > 500 nM, the IC50 (PRMT5 [2]; [6]) was > 500 nM and the IC50 (PRMT5 [3]) was > 500 nM.
For `CC[C@H]1CC[C@@H](c2ccccc2)N(C(=O)C(=O)Nc2cncc(C)c2)C1` (single isomer, unassigned) [Compound 20], the IC50 (PRMT5 [1]) was > 500 nM, the IC50 (PRMT5 [2]; [6]) was > 500 nM and the IC50 (PRMT5 [3]) was > 500 nM.
For `NC(=O)c1cncc(NC(=O)C(=O)N2C[C@H](OC(F)(F)F)CC[C@H]2c2ccccc2)c1` (racemic) [Compound 411, 5-[[2-Oxo-2-[2-phenyl-5-(trifluoromethoxy)-1-piperidyl]acetyl]amino]pyridine-3-carboxamide], the IC50 (PRMT5 [1]) was > 500 nM, the IC50 (PRMT5 [2]; read-out: No Cofactor/rel IC50) was > 500 nM and the IC50 (PRMT5 [3]) was 50 to 500 nM.
In the case of `Cc1cc(NC(=O)C(=O)N2CCC(N(C)C)C[C@H]2c2ccccc2)cnc1N` (mixture of isomers) [Compound 975, N-(6-amino-5-methyl-3-pyridyl)-2-[(2S,4S)-4-(dimethylamino)-2-phenyl-1-piperidyl]-2-oxo-acetamide], the IC50 (PRMT5 [1]) is reported as > 500 nM and the IC50 (PRMT5 [2]; read-out: No Cofactor/rel IC50) is reported as > 500 nM.
For `Cc1cc(NC(=O)C(=O)N2CCCC[C@@H]2c2cccnc2)cnc1N` (single isomer, unassigned) [Compound 74], the IC50 (PRMT5 [1]) was > 500 nM, the IC50 (PRMT5 [2]; [6]) was > 500 nM and the IC50 (PRMT5 [3]) was 50 to 500 nM.
For `NC(=O)c1cncc(NC(=O)C(=O)N2C[C@H](OC(F)F)CC[C@@H]2c2ccccc2)c1` (racemic) [Compound 400, 5-[[2-[(2R,5R)-5-(Difluoromethoxy)-2-phenyl-1-piperidyl]-2-oxo-acetyl]amino]pyridine-3-carboxamide], the IC50 (PRMT5 [1]) was > 500 nM, the IC50 (PRMT5 [2]; read-out: No Cofactor/rel IC50) was > 500 nM and the IC50 (PRMT5 [3]) was 50 to 500 nM.
For `CCc1cc(NC(=O)C(=O)N2C[C@@H](C)[C@@H](OC(C)C)C[C@@H]2c2ccc3scnc3c2)cnc1N` (racemic) [Compound 1235], the MTAP intact/deleted ratio ([4]; IC50 ratio HAP1 MTAP-intact vs HAP1 MTAP-deleted) was “A (an IC50 ratio greater than or equal to 10 fold)” and the IC50 ([5]; viability assay, MTAP-deleted cell line, read-out: HAP1 MTAP deleted viability) was < 1000 nM.
